The text below walks through data of patent US5830911A, “Pyranoindole and tetrahydrocarbazole inhibitors of COX-2” (American Home Products Corporation, priority 1997, dated 1998).

The target in one data set is T1, rhCOX-2 (Homo sapiens, UniProt P35354).
T1 construct: made in house; microsomal preparation
T1 sequence (P35354 18-604): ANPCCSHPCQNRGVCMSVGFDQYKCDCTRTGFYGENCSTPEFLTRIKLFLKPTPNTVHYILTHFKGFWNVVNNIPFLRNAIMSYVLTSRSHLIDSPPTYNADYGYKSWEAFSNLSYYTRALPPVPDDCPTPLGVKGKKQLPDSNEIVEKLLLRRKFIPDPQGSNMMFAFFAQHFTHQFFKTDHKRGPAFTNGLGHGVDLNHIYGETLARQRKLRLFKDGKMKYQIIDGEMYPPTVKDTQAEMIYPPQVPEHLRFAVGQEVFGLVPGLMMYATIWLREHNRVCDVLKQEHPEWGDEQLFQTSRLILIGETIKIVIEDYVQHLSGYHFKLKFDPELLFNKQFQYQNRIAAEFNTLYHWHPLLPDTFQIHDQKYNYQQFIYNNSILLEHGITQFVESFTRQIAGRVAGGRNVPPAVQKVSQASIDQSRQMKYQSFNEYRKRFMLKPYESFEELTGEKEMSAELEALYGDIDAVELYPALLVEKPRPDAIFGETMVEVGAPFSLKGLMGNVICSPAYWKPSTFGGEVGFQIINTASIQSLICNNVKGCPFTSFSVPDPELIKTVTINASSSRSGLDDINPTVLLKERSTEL
Nature of the data set: Inhibition of recombinant human COX-2 (PGH2 converted to PGF2α, EIA). Particulars: for IC50: human recombinant COX-2, 30 min preincubation, 37° C. The data set is classed as biochemical. Here is the method: (§1) Representative compounds of this invention were evaluated for inhibition of COX-2 and COX-1 enzymes as follows. Human COX-1 and COX-2 cDNAs were cloned from human monocytes, untreated and LPS-treated respectively, by RT-PCR using oligonucleotide primers based on published hCOX-1 and hCOX-2 sequences (Jones et al., J. Biol. Chem., 268, 9049 (1993)). The cDNAs were then transfected into either Sf9 or CHO cells and subsequently converted into a microsomal preparation as described by Glaser et al (Eur. J. Pharmacol. 281, 107-111 (1995)). The microsomal human recombinant enzymes were diluted with buffer (100 mM Tris, pH 7.8 at 37° C.) containing 0.5 mM phenol ([…] total volume). The enzyme preparations were preincubated with vehicle (DMSO) or compounds in DMSO (1 % DMSO in final assay) for 30 min at 37° C. Excess hematin was added 1 min prior to initiation of reaction (1.25 mM final hematin) with 30 mM arachidonic acid (sodium salt). Final assay volume was 1.0 ml (100 mM Tris (pH 7.8), 0.5 mM phenol, 1.25 mM hematin and 30 mM arachidonic acid at 37° C.).
The reaction was incubated for 35 sec (maximum level of PGH2 accumulation as determined from time course studies), and terminated by addition of […] of SnCl2 (1 mg/ml) in 0.1N HCl. PGH2 is quantitatively converted to PGF2a by this reaction (50% efficiency of total conversion). The pH of each tube is adjusted to pH 3.0-3.5 with 0.1N--NaOH and extracted twice with 1.5 ml of ethyl acetate (75-90% efficiency per extraction). Combined ethyl acetate extracts were dried under N2 (g) and redissolved in EIA buffer (2.0 ml), and PGF2α ( was quantified by EIA.

Another data set deals with T2, purified ovine COX-1 (Ovis aries, UniProt P05979).
T2 construct: purchased Cayman Chemicals (Ann Arbor, Mich.)
T2 sequence (P05979 25-600): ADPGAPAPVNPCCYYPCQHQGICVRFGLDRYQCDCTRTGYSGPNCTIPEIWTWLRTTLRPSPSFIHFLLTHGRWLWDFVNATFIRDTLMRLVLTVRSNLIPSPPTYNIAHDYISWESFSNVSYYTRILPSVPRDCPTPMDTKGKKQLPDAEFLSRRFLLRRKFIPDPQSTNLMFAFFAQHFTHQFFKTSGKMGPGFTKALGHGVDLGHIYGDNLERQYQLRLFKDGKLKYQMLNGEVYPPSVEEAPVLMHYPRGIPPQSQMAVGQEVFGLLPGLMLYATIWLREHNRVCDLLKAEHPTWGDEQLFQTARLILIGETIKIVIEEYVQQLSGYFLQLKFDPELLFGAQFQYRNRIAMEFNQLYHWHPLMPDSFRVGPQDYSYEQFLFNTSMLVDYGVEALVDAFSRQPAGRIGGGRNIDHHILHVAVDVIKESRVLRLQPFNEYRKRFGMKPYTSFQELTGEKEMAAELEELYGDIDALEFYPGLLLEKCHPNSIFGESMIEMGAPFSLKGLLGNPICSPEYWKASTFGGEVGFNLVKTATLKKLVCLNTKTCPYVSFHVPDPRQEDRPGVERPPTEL
As to the kind of experiment: Inhibition of purified ovine COX-1 (PGH2 converted to PGF2α, EIA). The data set is classed as biochemical. Particulars: for inhibition at 270 µM / inhibition at 90 µM / inhibition at 30 µM / inhibition at 10 µM: read-out: % inh of pur. bovine COX-1. Here is the method:
[The source words this procedure for another species and reports this species under the same test.] as §1, with “C.). The reaction was incubated for 35 sec (maximum level of PGH2 accumulation as determined from time course studies), and terminated by addition of […] of SnCl2 (1 mg/ml) in 0.1N HCl. PGH2 is quantitatively converted to PGF2a by this reaction (50% efficiency of total conversion). The pH of each tube is adjusted to pH 3.0-3.5 with 0.1N--NaOH and extracted twice with 1.5 ml of ethyl acetate (75-90% efficiency per extraction).” for “C.).”

The next data set has as its system COX-2. Particulars: literature; cited from earlier work.
For data set [1] the following is noted: Futaki et al., Gen. Pharmac. 24, 105-110, 1993; cited from earlier work.
The conditions of data set [2]: Futaki et al., Gen. Pharmac. 24, 105-110, 1993; cited from earlier work. This is another data set of the same source.
For data set [3] the following is noted: Rogers et al., Neurology 43, 1609-1611 (1993); cited from earlier work.

For `CCCC1(CC(=O)O)CCCc2c1[nH]c1c(C)ccc(C#N)c21` (centres unmarked) [Example 8, 5-Cyano-1-propyl-8-methyl-2,3,4,9-tetrahydro-1H-carbazole-1-acetic acid], the inhibition at 1 µM at rhCOX-2 (read-out: % inh of rhCOX-2) turned out to be 44%. The inhibition at 270 µM at purified ovine COX-1 is 99%.
Turning to `CCCC1(CC(=O)O)CCCc2c1[nH]c1c(C(N)=O)ccc(C#N)c21` (centres unmarked) [Example 9, 8-Carboxamido-5-cyano-1-propyl-2,3,4,9-tetrahydro-1H-carbazole-1-acetic acid], on rhCOX-2 (read-out: % inh of rhCOX-2), the inhibition at 0.1 µM worked out at 21%. Also, on purified ovine COX-1, the inhibition at 90 µM is -37%.
Take `C=CCC1(CC(=O)O)CCCc2c1[nH]c1c(C)ccc(C#N)c21` (centres unmarked) [Example 7, 1-Allyl-5-cyano-8-methyl-2,3,4,9-tetrahydro-1H-carbazole-1-acetic acid]: at rhCOX-2 (at 0.3 μM, read-out: % inh of rhCOX-2), the inhibition at 0.3 µM is 75%. Also, the inhibition at 30 µM at purified ovine COX-1 came to 99%.
Consider `CCC1(CC(=O)O)OCCc2c1[nH]c1cccc(C#N)c21` (centres unmarked) [Example 3, 5-Cyano-1-ethyl-1,3,4,9-tetrahydropyrano[3,4-b]indole-1-acetic acid], for which the half-maximal inhibitory concentration (IC50) at rhCOX-2 amounted to 0.57 µM. Besides, at purified ovine COX-1, the inhibition at 30 µM was determined as 47% and the inhibition at 270 µM came to 31%.
Regarding `CCCC1(CC(=O)O)OCCc2c1[nH]c1cccc(C#N)c21` (centres unmarked) [Example 4, 5-Cyano-1-propyl-1,3,4,9-tetrahydropyrano[3,4-b]indole-1-acetic acid], the IC50 is 1.7 µM on rhCOX-2 and above 1000 µM at purified ovine COX-1 (purified ovine COX-1, 30 min preincubation, 37° C.).
Consider `C=CCC1(CC(=O)O)CCCc2c1[nH]c1c(C#N)ccc(C#N)c21` (centres unmarked) [Example 11, 1-Allyl-5,8-dicyano-2,3,4,9-tetrahydro-1H-carbazole-1-acetic acid], for which the inhibition at 1 µM on rhCOX-2 (read-out: % inh of rhCOX-2) came out at 91%. Besides, the inhibition at 270 µM at purified ovine COX-1 was found to be 86%.
In the case of `CCCC1(CC(=O)O)OCCc2c1[nH]c1c(F)ccc(C#N)c21` (centres unmarked) [Example 1, 5-Cyano-8-fluoro-1-propyl-1,3,4,9-tetrahydropyrano[3,4-b]indole-1-acetic acid], the IC50 on rhCOX-2 was determined as 1 µM.
Regarding `CCCC1(CC(=O)O)CCCc2c1[nH]c1cccc(C#N)c21` (centres unmarked) [Example 10, 5-Cyano-1-propyl-2,3,4,9-tetrahydro-1H-carbazole-1-acetic acid], on rhCOX-2 (read-out: % inh of rhCOX-2), the inhibition at 0.1 µM is 18%. Besides, the inhibition at 90 µM on purified ovine COX-1 is 74%.
`CCc1cccc2c3c([nH]c12)C(CC)(CC(=O)O)OCC3` (centres unmarked) [etodolac]: the “selectivity for inhibition of COX-2” value in the data set on COX-2 is “tenfold”.
As to `C=CCC1(CC(=O)O)CCCc2c1[nH]c1c(F)ccc(C#N)c21` (centres unmarked) [Example 5, 1-Allyl-5-cyano-8-fluoro-2,3,4,9-tetrahydro-1H-carbazole-1-acetic acid], the IC50 at rhCOX-2 was 0.1 µM. For the same compound, the inhibition at 10 µM at purified ovine COX-1 worked out at 93%.
Turning to `CCCC1(CC(=O)O)OCCc2c1[nH]c1c(C)ccc(C#N)c21` (centres unmarked) [Example 2, 5-Cyano-8-methyl-1-propyl-1,3,4,9-tetrahydropyrano[3,4-b]indole-1-acetic acid], at rhCOX-2 (at 3 μM, read-out: % inh of rhCOX-2), the inhibition at 3 µM amounted to 38%. Further, the inhibition at 90 µM at purified ovine COX-1 came out at 86%.
Regarding `CS(=O)(=O)Nc1ccc([N+](=O)[O-])cc1OC1CCCCC1` [N-(2-cyclohexyloxy-4-nitrophenyl)methanesulfonamide], the antiinflammatory effect entry in data set [1] was “effective antiinflammatory”. In addition, the gastric side effects entry in data set [2] is listed as “lacks gastric side effects”. For the same compound, the “selectivity for inhibition of COX-2” value in the data set on COX-2 was “selective COX-2 inhibitor”.
`CCCC1(CC(=O)O)CCCc2c1[nH]c1c(F)ccc(C#N)c21` (centres unmarked) [Example 6, 5-Cyano-8-fluoro-1-propyl-2,3,4,9-tetrahydro-1H-carbazole-1-acetic acid]: the IC50 at rhCOX-2 is 0.32 µM. Further, the inhibition at 10 µM on purified ovine COX-1 came to 73%.
Take `CCCC1(CC(=O)O)CCCc2c1[nH]c1cc(C#N)ccc21` (centres unmarked) [Example 13, 7-Cyano-1-propyl-2,3,4,9-tetrahydro-1H-carbazole-1-acetic acid]: at rhCOX-2 (read-out: % inh of rhCOX-2), the inhibition at 0.1 µM came to 31%. Further, the inhibition at 90 µM at purified ovine COX-1 was 100%.
Consider `COc1ccc2c(c1)c(CC(=O)O)c(C)n2C(=O)c1ccc(Cl)cc1` [Indomethacin], for which the “treatment of Alzheimer's disease” value in data set [3] is “useful in the treatment of Alzheimer's disease”. Also, the “selectivity for inhibition of COX-2” value in the data set with COX-2 is “relatively non-selective inhibitor of COX-1 and COX-2”.
As for `CCCC1(CC(=O)O)CCCc2c1[nH]c1c(C#N)ccc(C#N)c21` (centres unmarked) [Example 12, 5,8-Dicyano-1-propyl-2,3,4,9-tetrahydro-1H-carbazole-1-acetic acid], the inhibition at 1 µM on rhCOX-2 (read-out: % inh of rhCOX-2) came out at 78%. The inhibition at 270 µM on purified ovine COX-1 stood at 98%.

As usually defined, the IC50 is the point on the concentration scale where inhibition reaches its midpoint.
